Measurements: PubChem BioAssay AID2060498 (Molecular Pharmacology Branch, DTP, NCI, 2025)
Blank lines part the entries; values can stand above or below the compound they belong to.

Tested on: 171881-019-R-J1-PDC tumor spheroids, viability
Assay: Anticancer human tumor 171881-019-R-J1-PDC patient-derived invasive breast carcinoma cell line growth inhibition [GQUAD]
Details: spheroids with HUVEC and MSC; for IC50: curve of first compound; for viability, T/C: stronger effect = lower value
Method in brief: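 Viability of tumor cells grown as complex spheroids with endothelial and stromal cells, exposed to drug combinations. Top concentration at or near clinical Cmax (else 10 microM), diluted in half-log increments.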

[1] = second compound 0.0316 µM, first compound 0.0316 µM
[2] = second compound 0.0316 µM, first compound 0.1 µM
[3] = second compound 0.0316 µM, first compound 0.316 µM
[4] = second compound 0.0316 µM, first compound 1 µM
[5] = second compound 0.0316 µM, first compound 3.16 µM
[6] = second compound 0.0316 µM, first compound 10 µM
[7] = second compound 0.1 µM, first compound 0.0316 µM
[8] = second compound 0.1 µM, first compound 0.1 µM
[9] = second compound 0.1 µM, first compound 0.316 µM
[10] = second compound 0.1 µM, first compound 1 µM
[11] = second compound 0.1 µM, first compound 3.16 µM
[12] = second compound 0.1 µM, first compound 10 µM
[13] = second compound 0.316 µM, first compound 0.0316 µM
[14] = second compound 0.316 µM, first compound 0.1 µM
[15] = second compound 0.316 µM, first compound 0.316 µM
[16] = second compound 0.316 µM, first compound 1 µM
[17] = second compound 0.316 µM, first compound 3.16 µM
[18] = second compound 0.316 µM, first compound 10 µM
[19] = second compound 1 µM, first compound 0.0316 µM
[20] = second compound 1 µM, first compound 0.1 µM
[21] = second compound 1 µM, first compound 0.316 µM
[22] = second compound 1 µM, first compound 1 µM
[23] = second compound 1 µM, first compound 3.16 µM
[24] = second compound 1 µM, first compound 10 µM
[25] = second compound 3.16 µM, first compound 0.0316 µM
[26] = second compound 3.16 µM, first compound 0.1 µM
[27] = second compound 3.16 µM, first compound 0.316 µM
[28] = second compound 3.16 µM, first compound 1 µM
[29] = second compound 3.16 µM, first compound 3.16 µM
[30] = second compound 3.16 µM, first compound 10 µM
[31] = second compound 10 µM, first compound 0.0316 µM
[32] = second compound 10 µM, first compound 0.1 µM
[33] = second compound 10 µM, first compound 0.316 µM
[34] = second compound 10 µM, first compound 1 µM
[35] = second compound 10 µM, first compound 3.16 µM
[36] = second compound 10 µM, first compound 10 µM
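Throughout, for viability, T/C: 100% = DMSO vehicle control viability.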

IC50 (second compound 0.0316 µM): < 31.6 nM
IC50 (second compound 0.1 µM): < 31.6 nM
IC50 (second compound 0.316 µM): < 31.6 nM
IC50 (second compound 1 µM): < 31.6 nM
IC50 (second compound 3.16 µM): 36.8 nM
IC50 (second compound 10 µM): < 31.6 nM
SMILES: CC1COCCN1c1cc(-c2ccnn2C)c2ccnc(-c3ccn[nH]3)c2n1 (stereo unspecified) + Cc1cnc(CNC(=O)c2c(=O)c3ccc(N4CCCN(C)CC4)nc3n3c2sc2ccccc23)cn1
viability, T/C [1]: 41.9%
viability, T/C [2]: 22.4%
viability, T/C [3]: 13.9%
viability, T/C [4]: 8.64%
viability, T/C [5]: 5.53%
viability, T/C [6]: 5.12%
viability, T/C [7]: 42.5%
viability, T/C [8]: 24.9%
viability, T/C [9]: 14.8%
viability, T/C [10]: 8.31%
viability, T/C [11]: 5.49%
viability, T/C [12]: 5.8%
viability, T/C [13]: 41.5%
viability, T/C [14]: 27.8%
viability, T/C [15]: 17.2%
viability, T/C [16]: 9.26%
viability, T/C [17]: 5.7%
viability, T/C [18]: 5.04%
viability, T/C [19]: 46.4%
viability, T/C [20]: 33%
viability, T/C [21]: 21.6%
viability, T/C [22]: 11.2%
viability, T/C [23]: 6.82%
viability, T/C [24]: 4.69%
viability, T/C [25]: 52.4%
viability, T/C [26]: 35.1%
viability, T/C [27]: 25.4%
viability, T/C [28]: 13.4%
viability, T/C [29]: 6.44%
viability, T/C [30]: 4.66%
viability, T/C [31]: 48.2%
viability, T/C [32]: 38.8%
viability, T/C [33]: 24.1%
viability, T/C [34]: 13.9%
viability, T/C [35]: 7.41%
viability, T/C [36]: 4.56%

IC50 (second compound 0.0316 µM): 405 nM
IC50 (second compound 0.1 µM): 268 nM
IC50 (second compound 0.316 µM): 169 nM
IC50 (second compound 1 µM): 169 nM
IC50 (second compound 3.16 µM): 112 nM
IC50 (second compound 10 µM): 103 nM
SMILES: COc1ccc([C@@H](O)c2cc(-c3ncnc4cc(N5CCOCC5)ccc34)c(F)cc2Cl)nn1 + Cc1cnc(CNC(=O)c2c(=O)c3ccc(N4CCCN(C)CC4)nc3n3c2sc2ccccc23)cn1
viability, T/C [1]: 93.2%
viability, T/C [2]: 77.1%
viability, T/C [3]: 60.5%
viability, T/C [4]: 22.4%
viability, T/C [5]: 9.13%
viability, T/C [6]: 5.12%
viability, T/C [7]: 75.6%
viability, T/C [8]: 76%
viability, T/C [9]: 43.7%
viability, T/C [10]: 19.1%
viability, T/C [11]: 8.81%
viability, T/C [12]: 4.57%
viability, T/C [13]: 73.1%
viability, T/C [14]: 58%
viability, T/C [15]: 40.5%
viability, T/C [16]: 17%
viability, T/C [17]: 9.34%
viability, T/C [18]: 6.36%
viability, T/C [19]: 64.9%
viability, T/C [20]: 56.8%
viability, T/C [21]: 41.8%
viability, T/C [22]: 18%
viability, T/C [23]: 10.8%
viability, T/C [24]: 4.62%
viability, T/C [25]: 60.7%
viability, T/C [26]: 49.4%
viability, T/C [27]: 39.4%
viability, T/C [28]: 18.9%
viability, T/C [29]: 11.2%
viability, T/C [30]: 4.88%
viability, T/C [31]: 53.8%
viability, T/C [32]: 52.3%
viability, T/C [33]: 37.8%
viability, T/C [34]: 21.7%
viability, T/C [35]: 11.8%
viability, T/C [36]: 4.99%

IC50 (second compound 0.0316 µM): > 10000 nM
IC50 (second compound 0.1 µM): > 10000 nM
IC50 (second compound 0.316 µM): > 10000 nM
IC50 (second compound 1 µM): > 10000 nM
IC50 (second compound 3.16 µM): > 10000 nM
IC50 (second compound 10 µM): > 10000 nM
SMILES: O=C(c1cc(Cc2n[nH]c(=O)c3ccccc23)ccc1F)N1CCN(C(=O)C2CC2)CC1 + Cc1cnc(CNC(=O)c2c(=O)c3ccc(N4CCCN(C)CC4)nc3n3c2sc2ccccc23)cn1
viability, T/C [1]: 97.3%
viability, T/C [2]: 93.3%
viability, T/C [3]: 87%
viability, T/C [4]: 87.1%
viability, T/C [5]: 80.9%
viability, T/C [6]: 75.1%
viability, T/C [7]: 79.9%
viability, T/C [8]: 82.7%
viability, T/C [9]: 76.3%
viability, T/C [10]: 68.4%
viability, T/C [11]: 64.1%
viability, T/C [12]: 62%
viability, T/C [13]: 70.1%
viability, T/C [14]: 69.8%
viability, T/C [15]: 71.3%
viability, T/C [16]: 65%
viability, T/C [17]: 67.8%
viability, T/C [18]: 58.2%
viability, T/C [19]: 66.6%
viability, T/C [20]: 61.5%
viability, T/C [21]: 68.9%
viability, T/C [22]: 58.6%
viability, T/C [23]: 64.1%
viability, T/C [24]: 57.8%
viability, T/C [25]: 59.4%
viability, T/C [26]: 55.4%
viability, T/C [27]: 64.6%
viability, T/C [28]: 56.5%
viability, T/C [29]: 55.3%
viability, T/C [30]: 55.7%
viability, T/C [31]: 54.3%
viability, T/C [32]: 60.4%
viability, T/C [33]: 57.9%
viability, T/C [34]: 55.5%
viability, T/C [35]: 59.3%
viability, T/C [36]: 55.4%
